The test system of assay [1] is C. violaceum CV026 QS. Also on record: method as in earlier work. The following applies: lead compound, value of Zhao; cited from earlier work.
Assay [2] deals with C. violaceum CV026 QS. Briefly: Half-maximal inhibitory concentration against C. violaceum CV026 QS (suppression of violacein production). The format is cell-based. The following applies: Chromobacterium violaceum; C6-HSL-induced violacein production, 12 h; mean ± SD of three independent tests; read-out: IC50, anti-CV026 QS activity. From the text:
In the exploration of the QS inhibitions, C. violaceum CV026, a mini-T5 mutant of C. violaceum ATCC31532, is frequently employed as a biosensor strain. Because C. violaceum CV026 lacks the CviI gene, which directs the synthesis of AHLs, it is unable to manufacture violacein on its own. The violacein reaction can be induced in C. violaceum CV026 by adding exogenous C6-HSL [27]. As a result, the violacein reaction in C. violaceum CV026 can be used to assess the compounds’ suppression of QS, as used in this investigation.
3.2.2. The Half-Maximal Inhibitory Concentration (IC50) of Compounds against C. violaceum CV026 QS [36]
Subsequently, the log phase of C. violaceum CV026 was placed in a 12-well plate (2 mL/well) after being diluted 10-fold with fresh LB medium. The experimental group received 15 μL of the diluted inducer C6-HSL (0.125 mM), and 8 μL of each dilution gradient compound was added to each well, while the positive control group received 8 μL of C10-HSL, and the blank control group received 8 μL of LB medium. The plates were incubated at 30 °C and 130 rpm for 12 h. After centrifuging 1 mL of the culture for 10 min at 11,255 g, the supernatant was discarded. After dissolving the violacein with 500 μL of DMSO, the mixture was centrifuged once more at 11,255 g for 10 min. In order to measure the absorbance at 585 nm, 200 μL of the upper pigment was added to a 96-well plate. The IC50 was calculated using GraphPad Prism 5 according to the formula (absorbance at 585 nm of the test concentration/the absorbance of the control at 585 nm × 100%).

In assay [3] the test system is P. aeruginosa PAO1 biofilms. Description: Biofilm quantification, crystal violet assay. Format: cell-based, Pseudomonas aeruginosa. The following applies: for inhibition at 20.3125 µM / inhibition at 40.625 µM / inhibition at 81.25 µM / inhibition at 162.5 µM / inhibition at 325 µM: Pseudomonas aeruginosa, PAO1, 20 h, read-out: Inhibition ratio of biofilm; for inhibition at 20.3125 µM: concentration 20.3125 (unit not given in Table S1; μM in method); for inhibition at 40.625 µM: concentration 40.625 (unit not given in Table S1; μM in method); for inhibition at 81.25 µM: concentration 81.25 (unit not given in Table S1; μM in method); for inhibition at 162.5 µM: concentration 162.5 (unit not given in Table S1; μM in method); for inhibition at 325 µM: concentration 325 (unit not given in Table S1; μM in method). The procedure: 3.2.3. Biofilm Quantification Assays
The crystal violet assay was used to quantitatively analyze the biofilm, as previously described. P. aeruginosa PAO1 log phase was diluted 100 times with fresh LB medium and incubated for 3.5 h at 37 °C and 150 rpm. After that, the P. aeruginosa PAO1 bacterial culture was added to the 96-well plate. P. aeruginosa PAO1 bacterial culture in 90 μL was added to the experimental group, and 10 μL of the test compound at a final concentration of 325 μM, 162.5 μM, 81.25 μM, 40 μM, 20 μM, and 10 μM. Each well received 100 μL of bacterial culture for the control group and 100 μL of fresh LB medium for the blank group. After 20 h of incubation at 37 °C, the bacterial culture was removed from the 96-well plate, and it was dried after three PBS washes. Each well received […] of 0.1% crystal violet (CV) for a 15 min staining period. Each well was washed three times with PBS after the CV was removed. Lastly, each well received 150 μL of 33% glacial acetic acid, and a Biotek multi-function microplate reader was used to measure the absorbance value at 595 nm. The biofilm inhibition rate was calculated as follows = (OD595 blank − OD595 sample)/OD595 blank × 100%.

The subject of assay [4] is wildtype Caenorhabditis elegans N2 infected with P. aeruginosa PAO1. Briefly: C. elegans survival assay. The following applies: after 48 h; agent alone: Y-31 162.5 μM, Tob 0.25 μg/mL. Format: in vivo. The text has this:
3.2.7. C. elegans Survival Assay
The negative control was the PGS agar plate coated with E. Coli OP50. Next, 50 wildtype C. elegans N2 strain-synchronized nematodes (L4 stage) were chosen and placed onto the plates. […] When the nematodes in the study were immobile, they were deemed dead. The number of nematodes that survived was tabulated to generate a survival curve.

Assay [5] relates to C. violaceum CV026 QS. Description: Half-maximal inhibitory concentration against C. violaceum CV026 QS (suppression of violacein production). Format: cell-based. The following applies: qualitative preliminary screening.

Like-named read-outs stand apart in the source and are kept apart here.

The IC50 is the point on the concentration scale where inhibition reaches its midpoint. Regarding `O=C(NN1CCOC1=O)c1ccccc1` [AOZ-1], the IC50 with C. violaceum CV026 QS [1] is more than 200 µM.

Take `CCCCCCCCCC(=O)N[C@H]1CCOC1=O` [C10-HSL, reference compound]: the IC50 in the assay on C. violaceum CV026 QS [2] stood at 0.15 ± 0.024 µM. In assay [3], the inhibition at 20.3125 µM was -4.35%, the inhibition at 40.625 µM stood at 2.25%, the inhibition at 81.25 µM was 0.25% and the inhibition at 162.5 µM is 6.3%. For the same compound, the inhibition at 325 µM in assay [3] is -18.8%. Moreover, the “Effect on the biofilm of P. aeruginosa PAO1” value in assay [3] (crystal violet assay) is listed as “no significant inhibitory effect”.

Take `NC[C@H]1O[C@H](O[C@H]2[C@H](O)[C@@H](O[C@H]3O[C@H](CO)[C@@H](O)[C@H](N)[C@H]3O)[C@H](N)C[C@@H]2N)[C@H](N)C[C@@H]1O` [Tob, Tobramycin, reference compound]: the “Improvement of the survival rate of infected nematodes (average)” value in assay [4] was found to be 63.33%.

For `O=C(CCCOc1ccc2ccncc2c1)NN1CCOC1=O` [Y-1], the IC50 with C. violaceum CV026 QS [2] worked out at 199 ± 13.9 µM. Further, in the assay on C. violaceum CV026 QS [5], the “C. violaceum CV026 QS inhibitory activity (first assessment)” value is reported as “inhibited”.

Consider `COc1ccc(OCCCC(=O)NN2CCOC2=O)cc1` [Y-3], for which the concentration for half-maximal inhibition (IC50) in the assay on C. violaceum CV026 QS [2] turned out to be 208 ± 7.26 µM. Moreover, the “C. violaceum CV026 QS inhibitory activity (first assessment)” value in the assay with C. violaceum CV026 QS [5] is listed as “inhibited”.

Turning to `O=C(CCCCOc1ccc(Br)cc1)NN1CCCOC1=O` [Y-4], in the assay on C. violaceum CV026 QS [2], the 50% inhibitory concentration (IC50) is more than 260 µM.

As for `O=C(CCCOc1ccc(-c2ccccc2)cc1)NN1CCOC1=O` [Y-5], in the assay on C. violaceum CV026 QS [2], the IC50 was 125 ± 16.1 µM.

In the case of `O=C(CCCOc1ccc(Br)cc1)NN1CCCOC1=O` [Y-6], in the assay with C. violaceum CV026 QS [2], the half-maximal inhibitory concentration (IC50) was more than 260 µM.

As for `O=C(CCCOc1ccc(Br)nc1)NN1CCOC1=O` [Y-9], the half-inhibitory concentration (IC50) in the assay on C. violaceum CV026 QS [2] worked out at 168 ± 7.28 µM. In addition, in the assay with C. violaceum CV026 QS [5], the “C. violaceum CV026 QS inhibitory activity (first assessment)” value is on record as “inhibited”.

Regarding `O=C(CCCOc1cnc(Br)cn1)NN1CCOC1=O` [Y-15], the half-inhibitory concentration (IC50) in the assay with C. violaceum CV026 QS [2] was found to be 91.3 ± 3.02 µM. Moreover, in assay [3], the inhibition at 20.3125 µM came to 6.73%, the inhibition at 40.625 µM was 27%, the inhibition at 81.25 µM worked out at 36.8% and the inhibition at 162.5 µM was found to be 33.9%. Besides, in assay [3], the inhibition at 325 µM came to 32.1%. In addition, the “C. violaceum CV026 QS inhibitory activity (first assessment)” value with C. violaceum CV026 QS [5] was “inhibited”.

As to `CCCCc1ccc(OCCCC(=O)NN2CCOC2=O)cc1` [Y-17], the 50% inhibitory concentration (IC50) with C. violaceum CV026 QS [2] is more than 260 µM.

`CC(C)(C)Oc1ccc(OCCCC(=O)NN2CCOC2=O)cc1` [Y-18]: in the assay on C. violaceum CV026 QS [2], the 50% inhibitory concentration (IC50) was more than 260 µM.

Take `CCc1ccc(OCCCC(=O)NN2CCOC2=O)cc1` [Y-19]: in the assay on C. violaceum CV026 QS [2], the IC50 came to 153 ± 8.78 µM.

For `O=C(CCCOc1ccc(C(F)(F)F)cc1)NN1CCOC1=O` [Y-25], in the assay on C. violaceum CV026 QS [2], the concentration for half-maximal inhibition (IC50) was determined as 62.6 ± 3.27 µM. Further, in assay [3], the inhibition at 20.3125 µM was found to be 18.8%, the inhibition at 40.625 µM worked out at 32.2%, the inhibition at 81.25 µM worked out at 33.4% and the inhibition at 162.5 µM is 39.9%. The inhibition at 325 µM in assay [3] came to 32.2%. Also, the “C. violaceum CV026 QS inhibitory activity (first assessment)” value in the assay on C. violaceum CV026 QS [5] is reported as “inhibited”.

Take `O=C(CCCOc1ccc(I)cc1)NN1CCOC1=O` [Y-26]: in the assay with C. violaceum CV026 QS [2], the half-maximal inhibitory concentration (IC50) was determined as 27.6 ± 1.25 µM. Moreover, in assay [3], the inhibition at 20.3125 µM came out at 2.17%, the inhibition at 40.625 µM turned out to be 33.5%, the inhibition at 81.25 µM turned out to be 42.5% and the inhibition at 162.5 µM stood at 44.6%. In assay [3], the inhibition at 325 µM turned out to be 38.7%. For the same compound, the “C. violaceum CV026 QS inhibitory activity (first assessment)” value with C. violaceum CV026 QS [5] is recorded as “inhibited”.

On to `O=C(CCCOc1ccccc1)NN1CCOC1=O` [Y-28], for which, in the assay on C. violaceum CV026 QS [2], the 50% inhibitory concentration (IC50) stood at 232 ± 5.84 µM. In addition, the “C. violaceum CV026 QS inhibitory activity (first assessment)” value with C. violaceum CV026 QS [5] is “inhibited”.

With `O=C(CCCOc1ccc2ccccc2c1)NN1CCOC1=O` [Y-29], the IC50 in the assay on C. violaceum CV026 QS [2] stood at 26.1 ± 2.52 µM. Moreover, in assay [3], the inhibition at 20.3125 µM came to 9.51%, the inhibition at 40.625 µM is 32.7%, the inhibition at 81.25 µM came out at 34.7% and the inhibition at 162.5 µM stood at 40.9%. For the same compound, in assay [3], the inhibition at 325 µM worked out at 9.07%. In the assay on C. violaceum CV026 QS [5], the “C. violaceum CV026 QS inhibitory activity (first assessment)” value is “inhibited”.

In the case of `O=C(CCCOc1cccc2ccccc12)NN1CCOC1=O` [Y-37], the IC50 in the assay on C. violaceum CV026 QS [2] turned out to be 102 ± 4.36 µM. Also, in assay [3], the inhibition at 20.3125 µM is 15.3%, the inhibition at 40.625 µM was found to be 35.1%, the inhibition at 81.25 µM was 36.4% and the inhibition at 162.5 µM is 28.7%. Also, the inhibition at 325 µM in assay [3] was 18.2%.

For the compound `CC(C)c1ccc(OCCCC(=O)NN2CCOC2=O)cc1` [Y-38], the IC50 with C. violaceum CV026 QS [2] was more than 260 µM.

Regarding `O=C(CCCSc1ccc(Br)cc1)NN1CCOC1=O` [Y-39], the IC50 in the assay on C. violaceum CV026 QS [2] turned out to be 47.4 ± 1.74 µM. For the same compound, in assay [3], the inhibition at 20.3125 µM was 12.9%, the inhibition at 40.625 µM came to 23.4%, the inhibition at 81.25 µM was found to be 28.4% and the inhibition at 162.5 µM came out at 24.9%. In addition, the inhibition at 325 µM in assay [3] was determined as 21.2%.

Regarding `Cc1ccc(OCCCC(=O)NN2CCOC2=O)c(C)c1` [Y-40], the IC50 with C. violaceum CV026 QS [2] is 180.5 ± 1.77 µM.
